# Where a name gives a salt, the structure may show the parent alone.
# How the values were obtained:
# Assay in all cases: Inhibition of growth activity of tumor cell lines in vitro by MTT method
# 2780-CP = format: cell-based; details: equivalent to 2 mg/ml doxorubicin, drug treatment 24 hours
# Experimental: (§1) The passive solid tumor-targeted anticancer prodrug used in the test was prepared in the test example 1 (equivalent to 2 mg/ml doxorubicin).
# (§2) Cell solution (with concentration of 50,000 cells/ml) growing in logarithmic growth phase cultured with RPMI 1640 culture medium was inoculated on a 96 well plate with 0.1 ml/well, and subject to corresponding drug treatment after incubation for 24 hours. After drug treatment for 24 hours, 0.02 ml 5 mg/ml 3-(4,5-dimethylthiazolyl-2)-2,5-diphenyltetrazolium bromide (MTT) was added for treatment for 4 hours, then culture solution was removed, 0.15 ml dimethylsulfoxide (DMSO) was added, and light absorption value was determined at 570 nm by a microplate reader.
# 2780-S = format: cell-based; details: equivalent to 2 mg/ml doxorubicin, drug treatment 24 hours
# Experimental: as §1, §2
# A549 = format: cell-based; details: Homo sapiens; A549, doxorubicin concentration 2 mg/ml, drug treatment 24 hours; read-out: Inhibition rate (%)
# Experimental: as §1, §2
# NCI-H446 = format: cell-based; details: Homo sapiens; NCI-H446, doxorubicin concentration 2 mg/ml, drug treatment 24 hours; read-out: Inhibition rate (%)
# Experimental: as §1, §2
# B16 = format: cell-based, mouse; details: B16, equivalent to 2 mg/ml doxorubicin, drug treatment 24 hours
# Experimental: as §1, §2
structure (smiles),measurement,setting,value
COc1cccc2c1C(=O)c1c(O)c3c(c(O)c1C2=O)C[C@@](O)(C(=O)CO)C[C@@H]3O[C@H]1C[C@H](N)[C@H](O)[C@H](C)O1 [doxorubicin hydrochloride],Inhibition rate (%),2780-CP,49.3%
same,Inhibition rate (%),2780-S,52.8%
same,inhibition at 2000 µg/mL,A549,67.6%
same,inhibition at 2000 µg/mL,NCI-H446,63.3%
same,Inhibition rate (%),B16,85.9%

# Source: patent publication US20120244193A1, “PASSIVE SOLID TUMOR TARGETING ANTICANCER PRODRUG AND PREPARATION METHOD THEREOF” (priority 2009, published 2012)
